# According to US20110166297A1, “MOLECULARLY IMPRINTED SMART POLYMERS (MISPs)” (Sailo Nanotechnologies Ltd., priority 2008, published 2011):
# Experiment: Solubility of Erg-TAD-Py (dissolved concentration by HPLC)
# Format: physicochemical
compound,measurement,setting,value
"CC(C)[C@@H](C)/C=C/[C@@H](C)C1CCC2C34C=CC5(C[C@@H](O)CC[C@]5(C)C3CC[C@]12C)n1c(=O)n(CCCc2ccc3ccc5cccc6ccc2c3c56)c(=O)n14 (some centres unmarked) [Erg-TAD-Py, Ergosterol-triazolinedione-pyrene]",Concentration of dissolved Erg-TAD-Py,10% DMSO in serum (inactivated fetal calf serum),7.8 µg/mL
same,Concentration of dissolved Erg-TAD-Py,10% DMSO in water,0.7 µg/mL
same,Concentration of dissolved Erg-TAD-Py,30% DMSO in serum (inactivated fetal calf serum),8.4 µg/mL
same,Concentration of dissolved Erg-TAD-Py,30% DMSO in water,6.7 µg/mL
same,Concentration of dissolved Erg-TAD-Py,50% DMSO in serum (inactivated fetal calf serum),6.8 µg/mL
same,Concentration of dissolved Erg-TAD-Py,50% DMSO in water,6 µg/mL
same,Concentration at which ethanol dissolves Erg-TAD-Py,,50 µg/mL
same,Concentration at which ethanol dissolves Erg-TAD-Py,molar equivalent of 0.05 mg/ml,about 60 uM
